According to publication PMC3469158, “Hesperidin-3′-O-Methylether Is More Potent than Hesperidin in Phosphodiesterase Inhibition and Suppression of Ovalbumin-Induced Airway Hyperresponsiveness” (Evidence-based Complementary and Alternative Medicine : eCAM, 2012):

Legend:
[1] = system: cytokines in BALF; test: Cytokine levels in BALF of sensitized and challenged mice (flow cytometric CBA); assay type: in vivo, BABL/c mice
Description: (§1) According to the schedule (Figure 2), ten female BABL/c mice in each group were sensitized by an intraperitoneal (i.p.) injection of 20 μg of ovalbumin emulsified in 2.25 mg of an aluminum hydroxide gel, prepared from aluminum sulfate hexadecahydrate, in a total volume of 100 μL on days 0 and 14. Mice were challenged via the airway using 1% ovalbumin in saline for 30 min on days 28, 29, and 30 by ultrasonic nebulization. After the last ovalbumin challenge, AHR was assessed on day 32 (48 h after 1% ovalbumin provocation) in each group. Each group of mice was orally (p.o.) administered the vehicle (control), 30∼100 μmol/kg of hesperidin or 10∼100 μmol/kg of hesperidin-3′-O-methylether 2 h before and 6 and 24 h after ovalbumin provocation. For comparison, sham-treated mice were challenged with saline instead of 1% ovalbumin (nonchallenged). The vehicle, a mixture of DMSO : PEG 400 : saline (1 : 1 : 8, v/v), hesperidin, or hesperidin-3′-O-methylether was administered (p.o.) at a volume of 0.01 mL/g of body weight. AHR was assessed by barometric plethysmography using a whole-body plethysmograph (WBP) and analyzed using software of Life Science Suite P3 Analysis Modules (Gould, LDS Test and Measurement LLC, Valley View, OH, USA) in unrestrained animals. Mice were placed into the main chamber of the WBP, and the baseline enhanced pause (P enh) value was determined. Then mice were first nebulized with phosphate-buffered saline (PBS), and subsequently with increasing doses (6.25∼50 mg/mL) of methacholine for 3 min for each nebulization, followed by readings of breathing parameters for 3 min after each nebulization to determine P enh values. Twenty-four hours after P enh determination, these mice were anesthetized with pentobarbital (50 mg/kg, i.p.), and the lungs were lavaged via a tracheal tube with PBS (1 × 1.0 mL, 37°C). After lavage, blood was collected from the jugular vein and allowed to sit so that it would coagulate. The collected bronchoalveolar lavage fluid (BALF) and coagulated blood were respectively centrifuged at 630 g for 7 min and at 3700 g for 10 min at 4°C. After centrifugation, the BALF and serum supernatants were stored at −20°C until determinations of cytokines, including interleukin (IL)-2, IL-4, IL-5, tumor necrosis factor (TNF)-α, and interferon (IFN)-γ by flow cytometric methods using mouse Th1/Th2 cytokine CBA kits, and of a total immunoglobulin (Ig)E and IgG2a using ELISA kits (Pharmingen, San Diego, CA, USA) according to the respective recommendations of the manufacturers. Ovalbumin-specific IgE was measured as described previously. Wells were coated with 100 μL of ovalbumin (20 μg/mL) instead of the capture antibody. Levels are expressed in arbitrary units, where 1 arbitrary unit equals the optical density of the sample divided by the optical density of unchallenged mouse serum or BALF (standard). The BALF pellet was resuspended in ACK lysing buffer (1.658 g NH4Cl, 0.2 g KHCO3, and […] EDTA in 200 mL of water) to lyse the residual erythrocytes in each sample. The number of inflammatory cells was counted using a hemocytometer (Hausser Scientific, Horsham, PA, USA). Cytospin slides were stained and cell differentials were determined in a blinded fashion by counting at least 100 cells under light microscopy. All undetectable data (<1 pg/mL) of cytokines were taken as 0.5 pg/mL.

[2] = system: airway hyperresponsiveness in ovalbumin-sensitized and challenged mice; test: Ovalbumin-induced airway hyperresponsiveness, Penh by whole-body plethysmography; assay type: in vivo, BABL/c mice; details: for Penh value at the baseline / Penh value with PBS nebulization: sensitized and challenged mice
Description: as §1

[3] = system: high-affinity rolipram-binding sites (HARBSs), PDE4H; test: Displacement of [3H]-rolipram from high-affinity rolipram-binding sites of brain cell membranes (PDE4H); design: species or system guinea pig
Description: When the above-mentioned guinea pigs were sacrificed, the whole brains were removed and homogenized with a glass/Teflon homogenizer (Glas-Col, Terre Haute, IN, USA) in 10 volumes of cold medium (pH 6.5) containing 20 mM Bis-Tris, 2 mM benzamidine, 2 mM EDTA, 50 mM sodium chloride, 0.1 mM PMSF, and 1 mM dithiothreitol. At 4°C, the homogenate was centrifuged at 170 g for 5 min to remove connective tissues and blood vessels. The suspended homogenate was then recentrifuged at 40,000 g for 30 min to separate the cytosolic and particulate portions. The particulate portion was resuspended in a suspension at a concentration of 400 mg/mL (wet weight/volume), after washing three times with homogenizing buffer. The particulate portion mainly consisted of cell membranes. […] Briefly, the reaction buffer consisted of 50 mM Tris-HCl and 5 mM MgCl2 (pH 7.5). […] After 1 h, the reaction was terminated by moving the reaction vessel into crushed ice. Then the reaction mixture was transferred onto Whatman GF/B glass-fiber filters, which were soaked in a 0.3% polyethyleneimine solution in a mini-funnel.

[4] = system: PDE3; test: PDE3 activity in homogenate of guinea pig lungs or hearts; assay type: biochemical; details: guinea pig lung or heart homogenate; read-out: IC50 for PDE3 inhibition
Description: Activities of PDE1∼5 in the homogenate of guinea pig lungs or hearts were measured by a two-step procedure according to the previous method, using cAMP with [^3 H]-cAMP or cGMP with [^3 H]-cGMP as substrates. The enzyme preparation (25 μL) was incubated for 30 min at 37°C in a total assay volume of 100 μL containing 50 mM Tris-HCl (pH 7.4), 3 mM MgCl2, 1 mM dithiothreitol, 0.05% BSA, and 1 μM cAMP with 0.2 μCi [^3 H]-cAMP as a substrate alone or in the presence of 0.1 unit calmodulin with 10 μM CaCl2 or 5 μM cGMP, and 1 μM cGMP with 0.2 μCi [^3 H]-cGMP as another substrate alone or in the presence of 0.1 unit calmodulin with 10 μM CaCl2. […] The reagents and homogenate were mixed on ice, and the reaction was initiated by transferring the mixture to a water bath at 37°C. Following a 30 min incubation, the reaction was stopped by transferring the reaction vessel to a bath of boiling water for 3 min. After cooling on ice, 20 μL of a 1 mg/mL solution of Crotalus atrox snake venom was added to the reaction mixture, and the mixture was incubated at 37°C for 10 min. Unreacted [^3 H]-cAMP or [^3 H]-cGMP was removed by the addition of 500 μL of a 1-in-1 Tris-HCl (40 mM) buffer suspension of Dowex resin (1 × 2-400) with incubation on ice for 30 min. Each tube was then centrifuged at 3700 g for 2 min, and 100 μL of the supernatant was removed for liquid scintillation counting.

[5] = system: IgE and IgG2a in serum and BALF; test: Total and ovalbumin-specific IgE and total IgG2a in serum and BALF (ELISA); assay type: in vivo, BABL/c mice
Description: as §1

SMILES: COc1ccc([C@@H]2CC(=O)c3c(O)cc(O[C@@H]4O[C@H](CO[C@@H]5O[C@@H](C)[C@H](O)[C@@H](O)[C@H]5O)[C@@H](O)[C@H](O)[C@H]4O)cc3O2)cc1O [hesperidin]
- increase in level of TNF-α in BALF ([1]; 100 μmol/kg p.o.): significantly suppressed
- level of IFN-γ in BALF compared to the control ([1]; 100 μmol/kg p.o.): significantly enhanced
- increases in levels of IL-2, IL-4, IL-5 in BALF ([1]; 30∼100 μmol/kg p.o.): significantly suppressed
- suppression of AHR ([2]; 30 μmol/kg p.o.): but not hesperidin, significantly suppressed AHR
- Penh value at the baseline ([2]; 30 μmol/kg p.o.): 2.39 ± 0.06
- Penh value with PBS nebulization ([2]; 30 μmol/kg p.o.): 2.40 ± 0.05
- Penh value at the baseline ([2]; 100 μmol/kg p.o.): 2.41 ± 0.04
- Penh value with PBS nebulization ([2]; 100 μmol/kg p.o.): 2.39 ± 0.05
- enhancement of Penh values induced by 25 and 50 mg/mL methacholine ([2]; 100 μmol/kg p.o., vs control (vehicle)): significantly attenuated
- EC50 ([3]; 2 nM [3H]-rolipram, guinea pig brain cell membranes, read-out: EC50 (PDE4H) for displacing [3H]-rolipram binding): > 300 µM
- displacement of 2 nM [3H]-rolipram binding on HARBSs ([3]; 300 μM, guinea pig brain cell membranes): 27.0 ± 1.4%
- PDE4H/PDE4L ratio ([3]; therapeutic ratio, EC50 (PDE4H) / IC50 (PDE4L)): 3
- IC50 [4]: > 100 µM
- total and OVA-specific IgE levels in the serum and BALF ([5]; 30 μmol/kg p.o.): but not hesperidin, significantly suppressed
- levels of total and ovalbumin-specific IgE in the BALF and serum ([5]; 100 μmol/kg p.o.): significantly suppressed
- reduction of total IgG2a level in the serum ([5]; 100 μmol/kg p.o.): significantly reversed
